Test results as given in US7964624B1, “Inhibitors of serine proteases” (priority 2005, dated 2011).
Like-named read-outs stand apart in the source and are kept apart here.

Assays:
[1] = biological target: T1, full-length hepatitis C viral protein NS3•4A (Hepatitis C virus genotype 1a, UniProt P27958); test: biochemical; set-up: species or system HCV sub-type strain 1a; conditions: apparent Ki class
T1 construct: hexa-histidine (N); made in house; host or cells: Sf9 insect cells (baculovirus, pVL1392)

HCV NS3 protease domain = biological target: T2, HCV NS3 protease domain (Hepatitis C virus genotype 1b, UniProt Q9WMX2); test: biochemical; conditions: apparent Ki class
T2 construct: The first 181 amino acids of NS3 (residues 1027-1207 of the viral polyprotein); hexa-histidine (C); made in house; host or cells: E. coli BL21/DE3 pLysS

[2] = Enzyme Assay 2 (HCV NS3 Peptide Cleavage Assay) activity
[3] = Enzyme Assay 1 (HCV NS3 Protease Domain Peptide Cleavage Assay) activity

| Structure (SMILES) | Ki [1, 2] [nM] | Ki (HCV NS3 protease domain; [3]) [nM] | Ki ([1]; read-out: Enzyme Assay 2 (HCV NS3 Peptide Cleavage Assay) activity) [nM] | Ki (HCV NS3 protease domain; read-out: Enzyme Assay 1 (HCV NS3 Protease Domain Peptide Cleavage Assay) activity) [nM] |
| --- | --- | --- | --- | --- |
| CCCC[C@H](NC(=O)CC1CCCCC1)C(=O)N1C[C@@]2(CC(c3cccc(Cl)c3)=NO2)C[C@H]1C(=O)N[C@@H](CCC)C(=O)C(=O)NC1CC1 [Compound 459] | 100 to 500 | > 500 | – | – |
| C=CCOC(=O)N[C@H](C(=O)N1C[C@@]2(CC(c3cccc(Cl)c3)=NO2)C[C@H]1C(=O)N[C@]1(C(=O)O)C[C@H]1C=C)C(C)(C)C [Compound 460] | > 500 | > 500 | – | – |
| CCC[C@H](NC(=O)[C@@H]1C[C@]2(CC(c3cccc(Cl)c3)=NO2)CN1C(=O)[C@@H](NC(=O)CC1CCCCC1)C(C)(C)C)C(=O)C(=O)NCc1ccncc1 [Compound 461] | 100 to 500 | > 500 | – | – |
| CCC[C@H](NC(=O)[C@@H]1C[C@]2(CC(c3cccc(Cl)c3)=NO2)CN1C(=O)C(NS(=O)(=O)c1ccc(F)cc1)c1ccccc1)C(=O)C(=O)NC1CC1 (stereo partly drawn) [Compound 466] | > 500 | > 500 | – | – |
| CCC[C@H](NC(=O)[C@@H]1C[C@]2(CC(c3cccc(Cl)c3)=NO2)CN1C(=O)[C@@H](NC(=O)CC1CC2CCC1C2)C(C)(C)C)C(=O)C(=O)NC1CC1 (stereo partly drawn) [Compound 467] | < 100 | 100 to 500 | – | – |
| CCC[C@H](NC(=O)[C@@H]1C[C@]2(CC(c3cccnc3OC)=NO2)CN1C(=O)[C@@H](NC(=O)CC1CCCCC1)C(C)(C)C)C(=O)C(=O)NC1CC1 [Compound 469] | 100 to 500 | > 500 | – | – |
| CCC[C@H](NC(=O)[C@@H]1C[C@]2(CC(c3cccc(Cl)c3)=NO2)CN1C(=O)[C@H](NS(=O)(=O)c1ccc(C)cc1)c1ccccc1)C(=O)C(=O)NC1CC1 [Compound 476] | 100 to 500 | 100 to 500 | – | – |
| CCC[C@H](NC(=O)[C@@H]1C[C@]2(CC(c3cccc(Cl)c3)=NO2)CN1C(=O)CCN(c1ccccc1)S(=O)(=O)c1ccccc1)C(=O)C(=O)NC1CC1 [Compound 483] | > 500 | > 500 | – | – |
| CCC[C@H](NC(=O)[C@@H]1C[C@]2(CC(c3cccc(Cl)c3)=NO2)CN1C(=O)[C@@H](NC(=O)CC1CCCCC1)C(C)(C)C)C(=O)C(=O)NCCOc1ccccc1OC [Compound 488] | 100 to 500 | > 500 | – | – |
| CCC[C@H](NC(=O)[C@@H]1C[C@]2(CC(c3cccc(Cl)c3)=NO2)CN1C(=O)[C@@H](NS(=O)(=O)c1ccc(OC)cc1)C(C)C)C(=O)C(=O)NC1CC1 [Compound 489] | 100 to 500 | > 500 | – | – |
| CCC[C@H](NC(=O)[C@@H]1C[C@]2(CC(c3cccc(Cl)c3)=NO2)CN1C(=O)[C@@H](NC(=O)CC1CCCCC1)C(C)(C)C)C(=O)C(=O)NC [Compound 493] | < 100 | 100 to 500 | – | – |
| CCC[C@H](NC(=O)[C@@H]1C[C@]2(CC(c3cccc(Cl)c3)=NO2)CN1C(=O)[C@@H](NC(=O)CC1CCCCC1)C(C)(C)C)C(=O)C(=O)N1CCCC1 [Compound 496] | > 500 | > 500 | – | – |
| CCC[C@H](NC(=O)[C@@H]1C[C@]2(CC(c3cc(Cl)c4c(c3)CCO4)=NO2)CN1C(=O)[C@@H](NC(=O)CC1CCCCC1)C(C)(C)C)C(=O)C(=O)NC1CC1 [Compound 499] | < 100 | < 100 | – | – |
| CCC[C@H](NC(=O)[C@@H]1C[C@]2(CC(c3ccc(OC)c(C)c3)=NO2)CN1C(=O)[C@@H](NC(=O)CC1CCCCC1)C(C)(C)C)C(=O)C(=O)NC1CC1 [Compound 500] | < 100 | 100 to 500 | – | – |
| CCC[C@H](NC(=O)[C@@H]1C[C@]2(CC(c3cccc(Cl)c3)=NO2)CN1C(=O)C(NS(=O)(=O)c1ccccc1)c1ccccc1)C(=O)C(=O)NC1CC1 (stereo partly drawn) [Compound 501] | > 500 | > 500 | – | – |
| CCC[C@H](NC(=O)[C@@H]1C[C@]2(CC(c3cccc(Cl)c3)=NO2)CN1C(=O)[C@@H](NC(=O)CC1CCCCC1)C(C)(C)C)C(=O)C(=O)N[C@@H](C)C(O)(c1ccccc1)c1ccccc1 [Compound 507] | > 500 | > 500 | – | – |
| CCCNC(=O)C(=O)[C@H](CCC)NC(=O)[C@@H]1C[C@]2(CC(c3cccc(Cl)c3)=NO2)CN1C(=O)[C@@H](NC(=O)CC1CCCCC1)C(C)(C)C [Compound 508] | 100 to 500 | 100 to 500 | – | – |
| C#CCCC(NC(=O)[C@@H]1C[C@]2(CC(c3cc(Cl)c(OC)cc3OC)=NO2)CN1C(=O)[C@@H](NC(=O)CC1CCOCC1)C(C)(C)C)C(=O)C(=O)NC1CC1 (stereo partly drawn) [Compound 510] | < 100 | 100 to 500 | – | – |

| Structure (SMILES) | Ki [1, 2] [nM] | Ki (HCV NS3 protease domain; [3]) [nM] | Ki ([1]; read-out: Enzyme Assay 2 (HCV NS3 Peptide Cleavage Assay) activity) [nM] | Ki (HCV NS3 protease domain; read-out: Enzyme Assay 1 (HCV NS3 Protease Domain Peptide Cleavage Assay) activity) [nM] |
| --- | --- | --- | --- | --- |
| CCC[C@H](NC(=O)[C@@H]1C[C@]2(CC(c3cccc(Cl)c3)=NO2)CN1C(=O)[C@@H](NC(=O)CC1CCCCC1)C(C)(C)C)C(=O)C(=O)N1CC(F)(F)C1 [Compound 521] | < 100 | 100 to 500 | – | – |
| CCC[C@H](NC(=O)[C@@H]1C[C@]2(CC(c3ccccc3)=NO2)CN1C(=O)[C@@H](NC(=O)CC1CCCCC1)C(C)(C)C)C(=O)C(=O)NC1CC1 [Compound 531] | 100 to 500 | 100 to 500 | – | – |
| CCC[C@H](NC(=O)[C@@H]1C[C@]2(CC(c3cccc(Cl)c3)=NO2)CN1C(=O)[C@@H](NS(=O)(=O)c1ccc(OC)cc1)C(C)CC)C(=O)C(=O)NC1CC1 (stereo partly drawn) [Compound 534] | > 500 | > 500 | – | – |
| CCC[C@H](NC(=O)[C@@H]1C[C@]2(CC(c3cccc(Cl)c3)=NO2)CN1C(=O)[C@@H](NC(=O)CC1CCCCC1)C(C)(C)C)C(=O)C(=O)N1CCC[C@H]1COC [Compound 537] | > 500 | > 500 | – | – |
| CCC[C@H](NC(=O)[C@@H]1C[C@]2(CC(c3cccc(Cl)c3)=NO2)CN1C(=O)[C@@H](NC(=O)CC1CCCCC1)C(C)(C)C)C(=O)C(=O)NCCc1cccc(OC)c1 [Compound 540] | 100 to 500 | 100 to 500 | – | – |
| CCC[C@H](NC(=O)[C@@H]1C[C@]2(CC(c3cccc(Cl)c3)=NO2)CN1C(=O)[C@@H](NC(=O)CC1(C)CCOCC1)C(C)(C)C)C(=O)C(=O)NC1CC1 [Compound 541] | < 100 | 100 to 500 | – | – |
| CCC[C@H](NC(=O)[C@@H]1C[C@]2(CC(c3cccc(Cl)c3)=NO2)CN1C(=O)[C@@H](NC(=O)CC1CCCCC1)C(C)(C)C)C(=O)C(=O)N[C@@H](C)c1ccccc1 [Compound 546] | 100 to 500 | 100 to 500 | – | – |
| CCC[C@H](NC(=O)[C@@H]1C[C@]2(CC(CC)=NO2)CN1C(=O)[C@@H](NC(=O)NC(C)(C)C)C(C)(C)C)C(=O)C(=O)NC1CC1 [Compound 559] | > 500 | > 500 | – | – |
| CCC[C@H](NC(=O)[C@@H]1C[C@]2(CC(c3cccc(Cl)c3)=NO2)CN1C(=O)[C@@H](NC(=O)CC1CCCCC1)C(C)(C)C)C(=O)C(=O)NC1CCS(=O)(=O)C1 (stereo partly drawn) [Compound 565] | > 500 | > 500 | – | – |
| CCC[C@H](NC(=O)[C@@H]1C[C@]2(CC(CC)=NO2)CN1C(=O)[C@@H](NC(=O)CC1CCOCC1)C(C)(C)C)C(=O)C(=O)NC1CC1 [Compound 566] | > 500 | > 500 | – | – |
| CCC[C@H](NC(=O)[C@@H]1C[C@]2(CC(c3cccc(Cl)c3)=NO2)CN1C(=O)[C@@H](NC(=O)CC1CCCCC1)C(C)(C)C)C(=O)C(=O)NCc1nc2ccccc2[nH]1 [Compound 567] | 100 to 500 | > 500 | – | – |
| CCC[C@H](NC(=O)[C@@H]1C[C@]2(CC(c3cccc(Cl)c3)=NO2)CN1C(=O)[C@@H](NC(=O)CC1CCCCC1)C(C)(C)C)C(=O)C(=O)N1CCCCC1 [Compound 568] | > 500 | > 500 | – | – |
| CCC[C@H](NC(=O)[C@@H]1C[C@]2(CC(c3cccc(Cl)c3)=NO2)CN1C(=O)[C@@H](NC(=O)CC1CCCCC1)C(C)(C)C)C(=O)C(=O)Nc1ccc(F)c(F)c1 [Compound 573] | > 500 | > 500 | – | – |
| CCC[C@H](NC(=O)[C@@H]1C[C@]2(CC(c3cccc(Cl)c3)=NO2)CN1C(=O)C(C)N1Cc2ccccc2C1=O)C(=O)C(=O)NC1CC1 (stereo partly drawn) [Compound 574] | > 500 | > 500 | – | – |
| CCC[C@H](NC(=O)[C@@H]1C[C@]2(CC(c3cccc(Cl)c3)=NO2)CN1C(=O)[C@@H](NC(=O)CC1CCC(C)(O)CC1)C(C)(C)C)C(=O)C(=O)NC1CC1 (stereo partly drawn) [Compound 575] | – | – | < 100 | < 100 |
| CCC[C@H](NC(=O)[C@@H]1C[C@]2(CC(c3cccc(Cl)c3)=NO2)CN1C(=O)C1=CC(c2cc(OC)ccc2OC)NC(=O)N1)C(=O)C(=O)NC1CC1 (stereo partly drawn) [Compound 586] | > 500 | > 500 | – | – |
| CCC[C@H](NC(=O)[C@@H]1C[C@]2(CC(c3cccc(Cl)c3)=NO2)CN1C(=O)[C@H](CC(C)C)NS(=O)(=O)c1ccc(OC)cc1)C(=O)C(=O)NC1CC1 [Compound 587] | 100 to 500 | > 500 | – | – |
| CCC[C@H](NC(=O)[C@@H]1C[C@]2(CC(c3cccc(Cl)c3)=NO2)CN1C(=O)[C@@H](NC(=O)CC1CCCCC1)C(C)(C)C)C(=O)C(=O)Nc1cccc(C#N)c1 [Compound 588] | > 500 | > 500 | – | – |
